Assay results as given in US20030139609A1, “Aziridinyl quinone antitumor agents based on indoles and cyclopent[b]indoles” (priority 2001, published 2003).
Values joined by “and” are separate entries in the source; they are usually repeats but may differ in a detail not shown here. Equal values may be shown once. Read-outs that look alike come from different tables or passages of the source.

Assays:
[1] = tested on: 600 bp calf thymus DNA; assay: DNA reductive alkylation by catalytically reduced aziridinyl quinones; type: biochemical; details: for DNA alkylation percentage: catalytic reduction, anaerobic, pH 7.4 tris buffer, 30° C., 24 h, absorbance at 550 nm
Description: DNA Alkylation Screening of Series 1-9. The extent of DNA reductive alkylation was determined by catalytic reduction of the aziridinyl quinones in the presence of 600 bp calf thymus DNA. Oxidative workup afforded DNA colored blue as a result of the aminoquinone chromophore. […] The anaerobic conditions employed for DNA reductive alkylation assays is not meant to mimic the environment of tumor cells. These conditions do permit an accurate assessment of the structural requirements for DNA alkylation by the hydroquinone species. To be sure, agents incapable of akylating DNA under these ideal conditions will not do so in the typical cellular environment.
Alkylation of DNA by Reduced Indoloquinones. To a mixture of 1-2 mg of sonicated (600 bp) calf thymus DNA in 2.0 mL of 0.05 M of pH 7.4 tris buffer and 2 mg of Pd on carbon was added a five-to-one base pair equivalent amount of the indoloquinone dissolved in 0.5 mL of dimethylsulfoxide. The resulting solution was degassed under argon for 30 min., after which the mixture was purged with H2 for 10 min. The solution was then purged with argon for 10 min. and placed in a 30° C. bath for 24 h. The reaction was opened to the air and the catalyst was removed with a Millex-PF […] syringe filter. The filtrate was adjusted to 0.3 M acetate with a 3 M stock solution of pH 5.1 acetate and then diluted with two volumes of ethanol. The mixture was chilled at −20° C. for 12 h and the DNA pellet collected by centrifuging at 12,000 g for 20 min. The pellet was redissolved in water and then precipitated and centrifuged again. The resulting blue or red pellet was suspended in ethanol, centrifuged, and dried. The dried pellet was weighed and dissolved in 1 mL of double distilled water resulting in a clear colored solution with […]max˜550 nm, □˜750 M^−1 cm^−1. This is the chromophore of the aminoquinone resulting from nucleophile-mediated opening of the aziridine ring. Model 2′-chloroethyl aminoquinones for extinction coefficient determination were prepared by treatment of the indoloquinone with HCl. {Skibo, E. B. and Xing, C., Chemistry and DNA Alkylation Reactions of Aziridinyl Quinones: Development of an Efficient Alkylating Agent of the Phosphate Backbone, Biochemistry, 1998, 37, 15199-15213}.

[2] = tested on: NCI-H460 non-small-lung cancer cell line; assay: NCI In Vitro Cell Line Screening, NSC H460 cell line; type: cell-based; details: for GI50 / CC50: Homo sapiens; for GI50: NCI-H460, concentration for 50% growth inhibition, read-out: Log GI50 NSC H460 (converted); for CC50: NCI-H460, read-out: Log LC50 NSC H460, concentration for 50% cell kill (converted); for Log TGI NSC H460: concentration for total growth inhibition; for Log GI50 NSC H460: concentration for 50% growth inhibition
Excerpt: Cytotoxic and Cytostatic Screening of Series 1-9.

[3] = tested on: National Cancer Institute 60-cell line; assay: NCI 60-cell line in vitro screen (average cytotoxicity and cancer specificity); details: for Average Log LC50 60-Cell Line: mean over 60 cell lines, ± value measures cancer specificity
Description: Cytotoxic and Cytostatic Screening of Series 1-9. […] The cytostatic parameters include GI50 and TGI, which are the concentrations of drug required for 50% growth inhibition and total growth inhibition, respectively. The cytotoxic parameter is the LC50, which is the concentration required for 50% cell kill.
4. […] Cancer specificity is measured from the ± value under the “Average Log LC50 60-Cell Line” heading of Table 5. A ± value greater than 2 indicates a greater than 100-fold higher/lower cytotoxicity in some histological cancer types compared to the mean cytotoxicity.
The DT-diaphorase levels in the National Cancer Institute 60-cell line in vitro screen have been determined and correlated with the cytotoxicity of antitumor agents activated by 2-electron reduction. {Fitzsimmons, S. A., Workman, P., Grever, M., Paull, K., Camalier, R., and Lewis, A. D., Reductase Enzyme Expression Across the National Cancer Institute Tumor Cell Line Panel: Correlation with Sensitivity To Mitomycin C and EO9, J. Natl. Cancer Inst., 1996, 88, 259-69}. Sensitive cancers usually include NSC lung and colon cancers (and to a lesser extent CNS, melanoma, and renal cancers) by virtue of their elevated DT-diaphorase levels.

[4] = tested on: B16 melanoma; assay: animal or person; type: in vivo; details: for In vivo T/C (Treated/Control) / response vs control in vivo at 2 mg/kg: T/C at day 25, <40% active; for response vs control in vivo at 2 mg/kg: Mus musculus, B16, 600 h, read-out: In vivo T/C (Treated/Control)
Excerpt: Shown in Tables 6 and 7 are B16 melanoma syngraft assays {Griswold, D. P., Consideration of the Subcutaneously Implanted B16 Melanoma as a Screening Model for Potential Anticancer Agents, Cancer Chemother Reports, 1972, 3, 315-324} of some members of Series 1-9, as well as related compounds previously reported from this laboratory. {Xing, C. G., Wu, P., Skibo, E. B., and Dorr, R. T., Design of cancer-specific antitumor agents based on aziridlinylcyclopent[b]indoloquinones, J. Med. Chem., 2000, 43, 457-466}. Each agent was evaluated at three doses in C57/bl mice: 2, 3 or 5 mg/kg/day, on days 1, 5, and 9 after subcutaneous tumor implantation of 10^5 cells in the front flank on day 0. “Toxic” means that there was early lethality, or ≧50% lethality prior to any deaths in the control group. The treated over control values (T/C) were measured at day 25 of the study. A T/C value <40% is considered active.
In vivo Evaluation. The B-16 melanoma in C57/bl mice syngraft model was employed to determine in vivo activity. {Griswold, D. P., Consideration of the Subcutaneously Implanted B16 Melanoma as a Screening Model for Potential Anticancer Agents, Cancer Chemother Reports, 1972, 3, 315-324}. Each agent was evaluated at three doses: 2, 3 or 5 mg/kg/day, on days 1, 5, and 9 after subcutaneous tumor implantation of 10^5 cells in the front flank on day 0. “Toxic” means that there was early lethality, or ≧50% lethality prior to any deaths in the control group. The treated over control values (T/C) were measured at day 25 of the study. A T/C value<40% is considered active. […] The control was obtained with drug-free animals.

| Compound | DNA alkylation percentage [1] [%] | GI50 [2] [nM] | CC50 [2] [nM] | Log TGI NSC H460 [2] | cytostatic/cytotoxic activity versus histological cancer type (in words) [3] | Log GI50 NSC H460 [2] | Average Log LC50 60-Cell Line [3] | In vivo T/C (Treated/Control) ([4]; 5 mg/Kg/Day on days 1, 5, 9) | In vivo T/C (Treated/Control) ([4]; 3 mg/Kg/Day on days 1, 5, 9) | further results |
| --- | --- | --- | --- | --- | --- | --- | --- | --- | --- | --- |
| CC1=C(N2CC2)C(=O)c2c(c3c(n2C)C(O)CC3)C1=O (stereo not drawn) [Compound 5a, 6-Aziridinyl-4,7-dimethyl-3-Hydroxy-1,2,3,4-tetrahydrocyclopent[b]indole-5,8-dione] | 0.3 | 1260 | 50100 | −5.12 | inactive against all histological cancer types |  |  |  |  | cytostatic and cytotoxic activity (−log) [2]: 5-6; CC50 ([3]; Homo sapiens, 60 cell, read-out: Average Log LC50 60-Cell Line (converted)): ≥ 100000 nM |
| CC1=C(N2CC2)C(=O)c2c(c(CO)c(CO)n2C)C1=O [Compound 8c, 6-Aziridinyl-2,3-di(hydroxymethyl)-1,5-dimethylindol-4,7-dione] | 0 | 38.9 | 955 | −6.66 |  | −7.27 | −4.61 ± 1.64 and −4.67 ± 2.48 | Toxic (“Toxic” means ≧ 50% lethality before any control growth deaths) |  | DNA alkylation (in words) [1]: complete loss of DNA alkylation; Log LC50 NSC H460 ([2]; human): −6.21 |
| CC(=O)OCc1[nH]c2c(c1COC(C)=O)C(=O)C(C)=C(N1CC1)C2=O [Compound 8b, 6-Aziridinyl-2,3-di(acetoxymethyl)-5-methylindole-4,7-dione] | 37 | 35.5 |  | −6.75 and −6.71 |  | −7.63 | −4.52 ± 1.7 and −4.61 ± 2.5 | Toxic (“Toxic” means ≧ 50% lethality before any control growth deaths) | Toxic (“Toxic” means ≧ 50% lethality before any control growth deaths) | DNA alkylation (in words) [1]: high DNA alkylation percentages; response vs control in vivo at 2 mg/kg ([4]; 2 mg/Kg/Day on days 1, 5, 9): 74% |
| CC(=O)OC1CCc2c1[nH]c1c2C(=O)C(C)=C(N2CC2)C1=O (stereo not drawn) [Compound 4b] | 44 | 112 | 1230 | −6.17 |  |  | −4.67 ± 1.04 |  |  | ± value of Average Log LC50 60-Cell Line [3]: ~1 |
| Cn1c(CO)c(CO)c2c1C(=O)C=C(N1CC1)C2=O [Compound 6b, 5-Aziridinyl-2,3-di(hydroxymethyl)-1-methylindole-4,7-dione] | 3.8 | 10 |  | −8 |  |  | −5.35 ± 2.65 and −5.50 ± 2.5 | Toxic (“Toxic” means ≧ 50% lethality before any control growth deaths) | Toxic (“Toxic” means ≧ 50% lethality before any control growth deaths) | In vivo T/C (Treated/Control) ([4]; 2 mg/Kg/Day on days 1, 5, 9): Toxic (“Toxic” means ≧ 50% lethality before any control growth deaths) |
| CC(=O)OC1CCc2c3c(n(C(C)=O)c21)C(=O)C(N1CC1)=C(C)C3=O (stereo not drawn) [Compound 4c] | 9 |  |  |  |  |  | −4.60 ± 1.12 and −4.49 ± 1.31 | 15% | 15% | In vivo T/C (Treated/Control) ([4]; 2 mg/Kg/Day on days 1, 5, 9): 37%; in vivo antitumor activity (in words) ([4]; 2, 3 or 5 mg/kg/day): active at all doses; in vivo toxicity (in words) ([4]; 2, 3 or 5 mg/kg/day): without any toxicity |
| O=C1C(N2CC2)=CC(=O)c2c1[nH]c1c2CCC1O (stereo not drawn) [Compound 3a, 6-Aziridinyl-3-hydroxy-1,2,3,4-tetrahydrocyclopent[b]indole-5,8-dione] | 30 | 7.24 | 1780 | −7.24 | significant cytostatic/cytotoxic activity |  | −5.59 ± 1.95 |  |  |  |
| CC1=C(N2CC2)C(=O)c2c([nH]c(CO)c2CO)C1=O [Compound 7a, 5-Aziridinyl-2,3-di(hydroxymethyl)-6-methylindole-4,7-dione] | 2 | 10 | 1170 | −7.49 | significant cytotoxic and cytostatic properties |  | −5.54 ± 1.89 | Toxic (“Toxic” means ≧ 50% lethality before any control growth deaths) | Toxic (“Toxic” means ≧ 50% lethality before any control growth deaths) | response vs control in vivo at 2 mg/kg ([4]; 2 mg/Kg/Day on days 1, 5, 9): 36% |
| 6-Aziridinyl-3-(hydroxymethyl)-2-methylcarboxylindol-4,7-dione [Compound 9b] | 2.2 |  |  | −5.55 and −5.39 |  | −5.90 and −5.80 | −5.20 ± 1.04 and −5.32 ± 1.14 |  |  | % of DNA bases reductively activated [1]: 2%; Log LC50 NSC H460 ([2]; concentration for 50% cell kill): −5.21 and −4.95; cytostatic/cytotoxic activity versus histological cancer type (in words) ([3]; text b52, FIG. 4): significant cytotoxic and cytostatic properties |
| O=C1C=C(N2CC2)C(=O)c2c1[nH]c1c2CCC1O (stereo not drawn) [Compound 1a, 7-Aziridinyl-3-hydroxy-1,2,3,4-tetrahydrocyclopent[b]indole-5,8-dione] | 22.5 | 10 | 295 | −6.99 |  |  | −5.66 ± 1.52 |  |  |  |
